Each compound was assayed on HCV 1b-377-neo replicon cells (assay: HCV replicon assay, HCV 1b-377-neo replicon cells (1b FRET)). Conditions: HCV 1b-377-neo replicon cells; HCV 1b genotype; read-out: EC50 range against HCV 1b (Table 2, Range).
Type: cell-based, Hepatitis C virus genotype 1b
Outline: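 Compounds were tested in genotype 1b subgenomic replicon cells carrying a neomycin marker, alongside a matched replicon line with an NS5A Y2065H substitution that confers resistance to a reference NS5A inhibitor.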
In the case of `CC[C@H](NC(=O)OC)C(=O)N1CCC[C@H]1c1ncc(-c2ccc(-c3ccc(-c4cnc([C@@H]5CCCN5C(=O)[C@H](CC)NC(=O)OC)[nH]4)cc3)cc2)[nH]1` [Example M21, dimethyl (4,4′-biphenyldiylbis(1H-imidazole-5,2-diyl(2S)-2,1-pyrroldinediyl((2S)-1-oxo-1,2-butanediyl)))biscarbamate], the EC50 is reported as 1 to 99 nM. `COC(=O)N[C@@H](C(=O)N1CCC[C@H]1c1ncc(-c2ccc(-c3ccc(-c4cnc([C@@H]5CCCN5C(=O)[C@H]5CCN(Cc6ccccc6)C5)[nH]4)cc3)cc2)[nH]1)c1ccccc1` [Example 84-28] showed an EC50 of 0.001 to 0.999 nM. For `COC(=O)N[C@@H](CC(N)=O)C(=O)N1CCC[C@H]1c1ncc(-c2ccc(-c3ccc(-c4cnc([C@@H]5CCCN5C(=O)[C@@H](NC(=O)OC)C(C)C)[nH]4)cc3)cc2)[nH]1` [Example M91y, methyl ((1S)-3-amino-1-(((2S)-2-(5-(4′-(2-((2S)-1-((2S)-2-((methoxycarbonyl)amino)-3-methylbutanoyl)-2-pyrrolidinyl)-1H-imidazol-5-yl)-4-biphenylyl)-1H-imidazol-2-yl)-1-pyrrolidinyl)carbonyl)-3-oxopropyl)carbamate (non-preferred name)], the EC50 was 100 to 999 nM.

Same assay, conditions: Hepatitis C virus, HCV 1b-377-neo replicon cells; HCV 1b genotype; read-out: EC50 range against HCV 1b (Table 2, Range)
Work on `COC(=O)N[C@@H](C(=O)N[C@@H](C)c1ncc(-c2cnc(-c3ccc(-c4cnc([C@@H]5CCCN5C(=O)[C@H](NC(=O)OC)c5ccccc5)[nH]4)cc3)nc2)[nH]1)c1ccccc1` [Example 152j-17, methyl ((1R)-2-((2S)-2-(5-(4-(5-(2-((1S)-1-(((2R)-2-((methoxycarbonyl)amino)-2-phenylacetyl)amino)ethyl)-1H-imidazol-5-yl)-2-pyrimidinyl)phenyl)-1H-imidazol-2-yl)-1-pyrrolidinyl)-2-oxo-1-phenylethyl)carbamate] yielded an EC50 of 0.001 to 0.999 nM. `CCNCC(=O)N1CCC[C@H]1c1ncc(-c2ccc(-c3ccc(-c4cnc([C@@H]5CCCN5C(=O)[C@@H](NC(=O)OC)C(C)C)[nH]4)cc3)cc2)[nH]1` [LS21, methyl ((1S)-1-(((2S)-2-(5-(4′-(2-((2S)-1-(N-ethylglycyl)-2-pyrrolidinyl)-1H-imidazol-5-yl)-4-biphenylyl)-1H-imidazol-2-yl)-1-pyrrolidinyl)carbonyl)-2-methylpropyl)carbamate] showed an EC50 of 0.001 to 0.999 nM. With `CN(C)CC(=O)N[C@@H](C(=O)N1CCC[C@H]1c1ncc(-c2ccc(-c3ccc(-c4cnc([C@@H]5CCCN5C(=O)[C@H](NC(=O)CN(C)C)c5ccccc5)[nH]4)cc3)cc2)[nH]1)c1ccccc1` [Example 25-5, N,N′-(4,4′-biphenyldiylbis(1H-imidazole-5,2-diyl(2S)-2,1-pyrrolidinediyl((1R)-2-oxo-1-phenyl-2,1-ethanediyl)))bis(2-(dimethylamino)acetamide)] the EC50 was 0.001 to 0.999 nM. `CCN(CC)[C@@H](C(=O)N1CCC[C@H]1c1ncc(-c2ccc(-c3ccc(-c4cnc([C@@H]5CCCN5C(=O)[C@H](NC(=O)OC)c5ccccc5)[nH]4)c(F)c3)cc2F)[nH]1)c1ccccc1` [Example D64, methyl ((1R)-2-((2S)-2-(5-(4′-(2-((2S)-1-((2R)-2-(diethylamino)-2-phenylacetyl)-2-pyrrolidinyl)-1H-imidazol-5-yl)-3,3′-difluoro-4-biphenylyl)-1H-imidazol-2-yl)-1-pyrrolidinyl)-2-oxo-1-phenylethyl)carbamate] gave an EC50 of 0.001 to 0.999 nM. `COC(=O)N[C@@H](C(=O)N1CCC[C@H]1c1ncc(-c2ccc(-c3ccc(-c4cnc([C@@H]5CCCN5C(=O)C5CN(C(=O)OC(C)(C)C)C5)[nH]4)cc3)cc2)[nH]1)c1ccccc1` [Example 84-27, tert-butyl 3-(((2S)-2-(5-(4′-(2-((2S)-1-((2R)-2-((methoxycarbonyl)amino)-2-phenylacetyl)-2-pyrrolidinyl)-1H-imidazol-5-yl)-4-biphenylyl)-1H-imidazol-2-yl)-1-pyrrolidinyl)carbonyl)-1-azetidinecarboxylate] gave an EC50 of 0.001 to 0.999 nM. Compound `COC(=O)N[C@@H](C)C(=O)N1CCC[C@H]1c1ncc(-c2ccc(-c3ccc(-c4cnc([C@@H]5CCCN5C(=O)[C@H](Nc5ncccn5)C(C)C)[nH]4)cc3)cc2)[nH]1` [cj-11j, methyl ((1S)-1-methyl-2-oxo-2-((2S)-2-(5-(4′-(2-((2S)-1-(N-2-pyrimidinyl-D-valyl)-2-pyrrolidinyl)-1H-imidazol-5-yl)-4-biphenylyl)-1H-imidazol-2-yl)-1-pyrrolidinyl)ethyl)carbamate] has an EC50 of 0.001 to 0.999 nM. With `CN1CCN(C(C(=O)N2CCC[C@H]2c2ncc(-c3ccc(-c4ccc(-c5cnc([C@@H]6CCCN6C(=O)[C@@H]6CCCO6)[nH]5)cc4)cc3)[nH]2)c2ccccc2)CC1` (stereo partly drawn) [Example 104, 1-methyl-4-(2-oxo-1-phenyl-2-((2S)-2-(5-(4′-(2-((2S)-1-((2S)-tetrahydro-2-furanylcarbonyl)-2-pyrrolidinyl)-1H-imidazol-5-yl)-4-biphenylyl)-1H-imidazol-2-yl)-1-pyrrolidinyl)ethyl)piperazine] the EC50 was 0.001 to 0.999 nM. `O=C1N[C@H](C(=O)N2CCC[C@H]2c2ncc(-c3ccc(-c4ccc(-c5cnc([C@@H]6CCCN6C(=O)[C@@H]6CCOC(=O)N6)[nH]5)cc4)cc3)[nH]2)CCO1` [LS11, (4S,4′S)-4,4′-(4,4′-biphenyldiylbis(1H-imidazole-5,2-diyl(2S)-2,1-pyrrolidinediylcarbonyl))bis(1,3-oxazinan-2-one)] gave an EC50 of 1000 to 10000 nM. Work on `COC(=O)N[C@@H](C(=O)N1CCC[C@H]1c1ncc(-c2ccc(-c3ccc(-c4cnc([C@@H]5CCCN5C(=O)Cc5ccsc5)[nH]4)cc3)cc2)[nH]1)c1ccccc1` [Example 84-73, methyl ((1R)-2-oxo-1-phenyl-2-((2S)-2-(5-(4′-(2-((2S)-1-(3-thienylacetyl)-2-pyrrolidinyl)-1H-imidazol-5-yl)-4-biphenylyl)-1H-imidazol-2-yl)-1-pyrrolidinyl)ethyl)carbamate] yielded an EC50 of 1 to 99 nM. Compound `COC(=O)N[C@@H](Cc1cscn1)C(=O)N1CCC[C@H]1c1ncc(-c2ccc(-c3ccc(-c4cnc([C@@H]5CCCN5C(=O)[C@@H](NC(=O)OC)[C@@H](C)OC)[nH]4)cc3)cc2)[nH]1` [cj-78, methyl ((1S)-2-((2S)-2-(5-(4′-(2-((2S)-1-((2S,3R)-3-methoxy-2-((methoxycarbonyl)amino)butanoyl)-2-pyrrolidinyl)-1H-imidazol-5-yl)-4-biphenylyl)-1H-imidazol-2-yl)-1-pyrrolidinyl)-2-oxo-1-(1,3-thiazol-4-ylmethyl)ethyl)carbamate] has an EC50 of 0.001 to 0.999 nM. `COC(=O)N[C@H](CC(=O)N1CCC[C@H]1c1ncc(-c2ccc(-c3ccc(-c4cnc([C@@H]5CCCN5C(=O)C[C@@H](NC(=O)OC)C(C)C)[nH]4)cc3)cc2)[nH]1)C(C)C` [cj-127, dimethyl (4,4′-biphenyldiylbis(1H-imidazole-5,2-diyl(2S)-2,1-pyrrolidinediyl((3R)-4-methyl-1-oxo-1,3-pentanediyl)))biscarbamate] gave an EC50 of 1 to 99 nM. With `CCN(CC)[C@@H](C(=O)N1CCC[C@H]1c1ncc(-c2ccc(-c3ccc(-c4cnc([C@@H]5CCCN5C(=O)[C@H](NC(=O)OC)C5CC5)[nH]4)cc3)cc2)[nH]1)c1ccccc1` [Example M56, methyl ((1R)-1-cyclopropyl-2-((2S)-2-(5-(4′-(2-((2S)-1-((2R)-2-(diethylamino)-2-phenylacetyl)-2-pyrrolidinyl)-1H-imidazol-5-yl)-4-biphenylyl)-1H-imidazol-2-yl)-1-pyrrolidinyl)-2-oxoethyl)carbamate] the EC50 was 1 to 99 nM. With `C[C@@H](C(=O)N1CCC[C@H]1c1ncc(-c2ccc(-c3ccc(-c4cnc([C@@H]5CCCN5C(=O)[C@@H](c5ccccc5)N5CCCC5)[nH]4)cc3)cc2)[nH]1)N(C)C` [Example 103, (2S)-N,N-dimethyl-1-oxo-1-((2S)-2-(5-(4′-(2-((2S)-1-((2R)-2-phenyl-2-(1-pyrrolidinyl)acetyl)-2-pyrrolidinyl)-1H-imidazol-5-yl)-4-biphenylyl)-1H-imidazol-2-yl)-1-pyrrolidinyl)-2-propanamine] the EC50 was 0.001 to 0.999 nM. Work on `COC(=O)N[C@H](C(=O)N1CCC[C@H]1c1ncc(-c2ccc(-c3ccc(-c4cnc([C@@H]5CCCN5C(=O)[C@H](NC(=O)OC)c5ccccc5)[nH]4)c(F)c3)cc2F)[nH]1)C(C)C` [Example D60, methyl ((1S)-1-(((2S)-2-(5-(3,3′-difluoro-4′-(2-((2S)-1-((2R)-2-((methoxycarbonyl)amino)-2-phenylacetyl)-2-pyrrolidinyl)-1H-imidazol-5-yl)-4-biphenylyl)-1H-imidazol-2-yl)-1-pyrrolidinyl)carbonyl)-2-methylpropyl) carbamate] yielded an EC50 of 0.001 to 0.999 nM. In the case of `COC(=O)N[C@@H](C(=O)N(C)[C@@H](C)c1ncc(-c2ccc(-c3ccc(-c4cnc([C@@H]5CCCN5C(=O)[C@H](NC(=O)OC)c5ccccc5)[nH]4)cc3)cc2)[nH]1)c1ccccc1` [Example 24-18-4, methyl ((1R)-2-((2S)-2-(5-(4′-(2-((1S)-1-(((2R)-2-((methoxycarbonyl)amino)-2-phenylacetyl)(methyl)amino)ethyl)-1H-imidazol-5-yl)-4-biphenylyl)-1H-imidazol-2-yl)-1-pyrrolidinyl)-2-oxo-1-phenylethyl)carbamate], the EC50 is reported as 0.001 to 0.999 nM. In the case of `CC[C@H](NC(=O)OC)C(=O)N1[C@@H]2C[C@@H]2C[C@H]1c1nc(-c2ccc(-c3ccc(-c4c[nH]c([C@@H]5C[C@H]6C[C@H]6N5C(=O)[C@H](CC)NC(=O)OC)n4)cc3)cc2)c[nH]1` [Example M133, dimethyl (4,4′-biphenyl-diylbis(1H-imidazole-4,2-diyl(1R,3S,5R)-2-azabicyclo[3.1.0]hexane-3,2-diyl((2S)-1-oxo-1,2-butanediyl)))biscarbamate], the EC50 is reported as 0.001 to 0.999 nM. In the case of `CN(C)C(=O)N[C@@H](C(=O)N1CCC[C@H]1c1nc(-c2ccc(-c3ccc(-c4c[nH]c([C@@H]5CCCN5C(=O)[C@H](NC(=O)N(C)C)c5ccccc5)n4)cc3)cc2)c[nH]1)c1ccccc1` [Example 24-4a, N′,N′′′-(4,4′-biphenyldiylbis(1H-imidazole-4,2-diyl(2S)-2,1-pyrrolidinediyl((1R)-2-oxo-1-phenyl-2,1-ethanediyl)))bis(1,1-dimethylurea)], the EC50 is reported as 0.001 to 0.999 nM.

Source: patent US8574563B2 (Bristol-Myers Squibb Company, priority 2006, dated 2013)
